Measurements taken from the METLIN SMRT retention time set (Domingo-Almenara et al. 2019).

Assay: gradient 5% acetonitrile 3 min, to 50% in 2 min, to 85% in 15 min, held 3 min, 100 µL/min
Conditions: column: Zorbax Extend-C18 2.1 x 50 mm; eluents: water / acetonitrile, 0.1% formic acid
Summary of the method: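 The system's dead and dwell volumes were 40 μL and 900 μL, with a Zorbax Extend-C18 column (2.1 × 50 mm, 1.8 μm) run at 100 μL/min in water and acetonitrile containing 0.1% formic acid each. Pure standards were analyzed in mixtures of ~100 molecules by HPLC–quadrupole time-of-flight mass spectrometry in positive and negative ionization mode. Retention time was assigned from computationally picked, manually inspected adduct peaks.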

| RP-LC retention time [s] | SMILES |
| --- | --- |
| 676 | O=c1n(Cc2ccc(Cl)cc2)nc2ccc(S(=O)(=O)N3CCOCC3)cn12 |
| 616 | Cc1cc(N2CCN(C(=O)CCc3ccccc3)CC2)nc2nnc(C)n12 |
| 929 | O=C(NCc1ccccc1F)c1cn(-c2ccc(-c3nc(C4CC4)no3)cn2)cn1 |
| 648 | Cc1nc2ncnn2c(N2CCCC2)c1C |
| 705 | CN(C)c1ccc(Nc2nc(-c3ccccc3)cs2)cc1 |
| 915 | CCC(C)(C)C(=O)NC1CCN(C2=NS(=O)(=O)C(c3cccc(Cl)c3)=C2C)CC1 |
| 846 | CC(C)NC(=O)c1ccc(OCC2CCCN(C(=O)c3cccc(F)c3)C2)cc1 (stereo unspecified) |
| 728 | CCn1cnc(S(=O)(=O)N2CCC(C(=O)Nc3cc(OC)ccc3OC)CC2)c1 |
| 954 | CCn1c(=O)c(C)nc2cc(-c3noc(C4CC(=O)N(c5ccc(C)c(C)c5)C4)n3)ccc21 (stereo unspecified) |
| 740 | Cc1nc(-c2csc(S(=O)(=O)N3CCC(C(=O)Nc4ccccn4)CC3)c2)no1 |
| 822 | CCOc1nc2c(c(C)nn2-c2ccccc2)c(C)c1CCC(=O)N1CCN(c2ccccn2)CC1 |
| 807 | COc1ccc(N2CC(C(=O)N3CCc4cc(-c5ccno5)ccc43)CC2=O)cc1 (stereo unspecified) |
| 780 | CC(=O)c1ccc(NS(=O)(=O)N2CCC(C)CC2)cc1 |
| 669 | CC(=O)N1CCc2cc(N3CC(C(=O)NCCC(C)C)CC3=O)ccc21 (stereo unspecified) |
| 583 | CCCc1c(C)nc2ncnn2c1N1CCN(c2ccccn2)CC1 |
| 820 | O=C(Cc1csc2nc(-c3ccccc3)cn12)N1CCN(c2ccccc2)CC1 |
| 566 | COCCCNC(=O)c1ccc2c(c1)nc1n2CCCCC1 |
| 700 | CCn1cnc(S(=O)(=O)N2CCC(C(=O)NCc3ccc(F)cc3)CC2)c1 |
| 689 | Cn1ccc2c(cc(C(=O)N3CCN(c4ccc(F)cc4)CC3)n2C)c1=O |
| 721 | O=C(Nc1ccc(Br)cc1)C1CCN(c2cc(N3CCCC3)ncn2)CC1 |
| 682 | CO[C@H]1C(=O)N(C(C)C)[C@H]1C1CCN(C(=O)C(C)C)CC1 |
| 591 | CCc1ccccc1N1C(=O)CC(N2CCC(C(N)=O)CC2)C1=O (stereo unspecified) |
| 662 | O=C(O)c1nnn(-c2ccc3c(c2)CCC3)c1-c1ccncc1 |

| RP-LC retention time [s] | SMILES |
| --- | --- |
| 742 | COc1ccc(N2CC(c3nnc(NC(=O)COc4ccc(C)cc4)o3)CC2=O)cc1 (stereo unspecified) |
| 732 | Cc1ccc(CC(=O)NC2CCN(c3cc(-c4cccs4)[nH]n3)C2)cc1 (stereo unspecified) |
| 818 | CCn1ccc2sc(C)c(C(=O)NCc3ccccc3F)c2c1=O |
| 649 | CC(C)CCNC(=O)NCCc1cn(C)c2ncccc12 |
| 920 | CCN(C(=O)Cn1nc(S(=O)(=O)c2ccc(Cl)cc2)ccc1=O)c1ccccc1 |
| 686 | COc1cc(=O)n2c(c1C(=O)NC1CCc3ccccc31)CCCC2 (stereo unspecified) |
| 1160 | O=S(=O)(c1cccc(-c2nnc(-c3ccc(Cl)cc3)o2)c1)N1CCCCC1 |
| 800 | Cc1c(C(=O)Nc2ccc(N3CCC(N4CCOCC4)CC3)c(C#N)c2)cnn1-c1ccc(Cl)cc1 |
| 746 | Cc1noc(-c2ccc(N3CCCC(C(=O)NC(C)c4ccco4)C3)nc2)n1 (stereo unspecified) |
| 630 | COCC(=O)NC1CCC12CCN(C(=O)NC(C)C)CC2 (stereo unspecified) |
| 947 | CC(C)CN(CC(C)C)C(=O)CCCN1C(=O)c2ccccc2C1=O |
| 926 | COCCc1noc(-c2nc(-c3ccccc3F)no2)n1 |
| 852 | Cc1nnc(SCC(=O)Nc2nc(-c3ccccc3)ns2)s1 |
| 904 | CCOc1ccccc1NC(=O)N1CCC2(CC1)NC(=O)c1cc(Cl)ccc1N2C |
| 882 | COc1ccc(NC(=O)Cc2csc3nc(-c4cccc(Br)c4)cn23)cc1OC |
| 649 | COc1ccc(C2Cn3cnc(C(=O)N4CCC(C(=O)NCC5CC5)CC4)c3CO2)cc1 (stereo unspecified) |
| 1020 | Cc1cc(C)nc(N2CCN(c3cc(C)nc4c(C)c(-c5ccc(Cl)cc5)nn34)CC2)n1 |
| 705 | Cn1c(=O)c2ccn(CC(=O)Nc3cccc(C(F)(F)F)c3)c2n(C)c1=O |
| 634 | Cc1ccc(-c2nc(Cn3ccnc3C)no2)cc1 |
| 689 | COc1ccc(Cl)cc1S(=O)(=O)N1CCCC(C(N)=O)C1 (stereo unspecified) |
| 660 | CN(C)C(=O)c1n[nH]c2c1CN(S(=O)(=O)c1ccccc1)CC2 |
| 775 | Cc1ccc(C(=O)OCCN2C(=O)c3ccccc3C2=O)cc1 |
| 862 | Cc1nn2c(S(=O)(=O)N3CCSCC3)c(C(C)C)nc2s1 |

| RP-LC retention time [s] | SMILES |
| --- | --- |
| 776 | CCc1ccccc1NC(=O)CSc1nnc2ccc(C(=O)Nc3cccc(F)c3)cn12 |
| 671 | CC(C)NC(=O)N1CCOc2ccc(CCC(=O)O)cc2C1 |
| 790 | COC(=O)C1=CN(c2ccc(F)cc2)c2ccccc2S1(=O)=O |
| 703 | C=CCn1c(NCc2cccc(Br)c2)nc2ccccc21 |
| 549 | Cc1cc(NC(=O)COc2coc(CN3CCN(C(=O)c4ccco4)CC3)cc2=O)no1 |
| 619 | CC(C)CCNC(=O)C1(C)Cn2nc(C(=O)NCc3ccc(N(C)C)cc3)cc2C(=O)N1C (stereo unspecified) |
| 752 | CCOC(=O)c1cnc2nc(C)ccc2c1Nc1cccc(Cl)c1 |
| 813 | Cc1c(S(=O)(=O)NCCC2CCN(C(=O)c3ccc(F)cc3)CC2)cnn1C(F)F |
| 1240 | CCOc1nc2ccccc2nc1N1CCCC(C(=O)Nc2ccc(OC)c(Cl)c2)C1 (stereo unspecified) |
| 757 | Cc1ccc(-c2cc3c(=O)n(Cc4noc(CN5CCCCCCC5)n4)ccn3n2)cc1 |
| 735 | Cc1noc2nc(C)n(CC(=O)NCc3ccc(F)cc3)c(=O)c12 |
| 749 | COCCNC(=O)Cn1nc(-c2ccc(Cl)cc2)c2c(C)onc2c1=O |
| 808 | Cc1ccccc1NC(=O)NCCc1cn(CC(C)C)c2ncccc12 |
| 996 | Cc1nn(-c2ccc(Cl)nn2)c(C)c1Cl |
| 710 | COCCNC(=O)C1CCN(S(C)(=O)=O)c2cc(Cl)ccc2O1 (stereo unspecified) |
| 592 | Cc1cc(N2CCN(C(=O)c3nccc4ccccc34)CC2)nc2nnc(C)n12 |
| 870 | CCOC(=O)c1cccc(Nc2nc(C(=O)OCC)nc3ccccc23)c1 |
| 777 | CN1CC(=O)N(CC(=O)Nc2ccc(OC(F)(F)F)cc2)c2ccccc2C1=O |
| 544 | CCS(=O)(=O)N1C[C@@H](COC)[C@H](c2ccncc2)C1 |
| 767 | COc1ccccc1CNC(=O)Cn1nc2c(N3CCSCC3)nccn2c1=O |
| 946 | CCc1ccc(-c2cc(C(=O)N3CCCN(c4cc(=O)n(C(C)C)c(=O)n4C(C)C)CC3)[nH]n2)cc1 |
| 1020 | CCOC(=O)c1sc2nc(NC(=O)Cc3ccccc3)sc2c1C |
| 650 | COc1ccc(NS(=O)(=O)c2cc3n(c2)CCCN(C)C3=O)cc1 |

| RP-LC retention time [s] | SMILES |
| --- | --- |
| 616 | CCN(CC)S(=O)(=O)c1ccc2c(c1)nnn2CCC(=O)N1CCN(c2ccccn2)CC1 |
| 577 | NS(=O)(=O)c1ccc(CCNC(=O)C2CCCN(c3nc4ccccc4[nH]3)C2)cc1 (stereo unspecified) |
| 729 | Cc1ccc(CNC(=O)C2CCCN(S(=O)(=O)c3c[nH]c(C(=O)N4CCCC4)c3)C2)o1 (stereo unspecified) |
| 601 | COc1ccc(OCC(=O)N2CCCCC2CCN2CCOCC2)cc1 (stereo unspecified) |
| 564 | Cc1nn(C)cc1CN1CCCCC1CCn1cc(-c2ccccc2)nn1 (stereo unspecified) |
| 924 | CCCC(=O)N1CCc2c([nH]c3ccccc23)C12C(=O)Nc1ccc(Br)cc12 (stereo unspecified) |
| 796 | Cc1noc(C)c1S(=O)(=O)N1CCC(c2noc(-c3cccnc3)n2)C1 (stereo unspecified) |
| 842 | Cn1cccc1C(=O)C(=O)Nc1ccc2c(c1)OCCO2 |
| 669 | COc1ccccc1CNC(=O)CCC1CCN(c2cc(NC3CC3)ncn2)CC1 |
| 648 | Cc1ccc(-n2ncc3c(NCCN(C)C)ncnc32)cc1C |
| 1090 | CCOc1ccc(OCC)c(NS(=O)(=O)c2cc(-c3cc(CC)no3)cs2)c1 |
| 1010 | O=C(NCc1ccc2c(c1)OCO2)c1nn(-c2ccc(Cl)cc2)nc1CO |
| 686 | Cn1c(CCNC(=O)c2ccc(C(F)(F)F)cc2)nc2cccnc21 |
| 926 | Cn1c(=O)sc2cc(S(=O)(=O)N3CCC(C(=O)Nc4ccc(Cl)cc4)CC3)ccc21 |
| 982 | COc1ccc(-c2csc(NC(=O)CCn3c(=O)sc4ccccc43)n2)cc1 |
| 656 | O=C(COc1ccccc1Cl)N1CCCCC1CCN1CCCC1 (stereo unspecified) |
| 726 | O=S(=O)(c1ccc(-c2nnc(C3CCCC3)o2)o1)N1CCN(c2ccccn2)CC1 |
| 699 | O=C(Nc1ccc(-c2nnc3n2CCCC3)cc1)C1CCCCC1 |
| 1110 | CCOc1ccc(-c2nc(COc3cc(C)c4c(C)nn(C)c4n3)c(C)o2)cc1OC |
| 811 | CCc1ccc(C(=O)NC2CCN(c3ccccc3)C2=O)cc1 (stereo unspecified) |
| 980 | CCn1ccc2cc(S(=O)(=O)N3CCCC(C(=O)NCCC(C)C)C3)ccc21 (stereo unspecified) |

| SMILES | RP-LC retention time [s] |
| --- | --- |
| Ic1ccccc1CNC1C2CCN(CC2)C1C(c1ccccc1)c1ccccc1 (stereo unspecified) | 982 |
